From ChEMBL document CHEMBL3627657, “Design, synthesis, biological evaluation and docking study of 4-isochromanone hybrids bearing N-benzyl pyridinium moiety as dual binding site acetylcholinesterase inhibitors” (Bioorg Med Chem Lett, 2015)
The source made the active and inactive calls. The calls are words filed in the database; no cut-off is given here.

Key:
[1] = target: Cholinesterase (Equus caballus, UniProt P81908)
Description: Inhibition of equine serum BuChE using thiocholine iodide as substrate by Ellman's method

[2] = target: Acetylcholinesterase (Electrophorus electricus, UniProt O42275); experiment: Inhibition of electric eel AChE using […] as substrate by Ellman's method
[3] = Selectivity index, ratio of IC50 for equine serum BuChE to IC50 for electric eel AChE
[4] = Dissociation constant, pKa of the compound by UV-metric/potentiometric method; type: physicochemical
[5] = Lipophilicity, log P of the compound by UV-metric/potentiometric method; type: physicochemical; settings: octanol/water
[6] = Lipophilicity, log D of the compound at pH 7.4 by UV-metric/potentiometric method; type: physicochemical; settings: buffer
[7] = target: Acetylcholinesterase (Electrophorus electricus) (UniProt O42275); experiment: Mixed type inhibition of electric eel AChE using […] as substrate by Lineweaver-Burk plot analysis
Sequence of Acetylcholinesterase (Electrophorus electricus) (O42275 24-633 limits assumed): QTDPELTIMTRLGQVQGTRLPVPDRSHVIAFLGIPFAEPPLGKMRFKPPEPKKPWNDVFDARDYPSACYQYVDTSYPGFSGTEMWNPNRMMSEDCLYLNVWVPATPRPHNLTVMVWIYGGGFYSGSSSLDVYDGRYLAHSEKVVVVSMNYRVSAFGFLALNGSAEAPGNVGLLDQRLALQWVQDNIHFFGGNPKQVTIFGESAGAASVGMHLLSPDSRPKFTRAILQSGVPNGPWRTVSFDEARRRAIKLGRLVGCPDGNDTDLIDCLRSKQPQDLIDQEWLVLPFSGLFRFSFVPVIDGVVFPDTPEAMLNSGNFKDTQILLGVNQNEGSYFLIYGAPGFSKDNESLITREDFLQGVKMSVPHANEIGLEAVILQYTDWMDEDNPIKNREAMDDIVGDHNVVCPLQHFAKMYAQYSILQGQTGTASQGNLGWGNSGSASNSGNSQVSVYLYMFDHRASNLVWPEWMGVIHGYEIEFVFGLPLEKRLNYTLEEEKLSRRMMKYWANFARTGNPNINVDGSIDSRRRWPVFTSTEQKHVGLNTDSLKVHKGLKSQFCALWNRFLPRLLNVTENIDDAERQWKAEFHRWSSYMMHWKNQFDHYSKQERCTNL

Sequence of Cholinesterase (P81908 whole entry): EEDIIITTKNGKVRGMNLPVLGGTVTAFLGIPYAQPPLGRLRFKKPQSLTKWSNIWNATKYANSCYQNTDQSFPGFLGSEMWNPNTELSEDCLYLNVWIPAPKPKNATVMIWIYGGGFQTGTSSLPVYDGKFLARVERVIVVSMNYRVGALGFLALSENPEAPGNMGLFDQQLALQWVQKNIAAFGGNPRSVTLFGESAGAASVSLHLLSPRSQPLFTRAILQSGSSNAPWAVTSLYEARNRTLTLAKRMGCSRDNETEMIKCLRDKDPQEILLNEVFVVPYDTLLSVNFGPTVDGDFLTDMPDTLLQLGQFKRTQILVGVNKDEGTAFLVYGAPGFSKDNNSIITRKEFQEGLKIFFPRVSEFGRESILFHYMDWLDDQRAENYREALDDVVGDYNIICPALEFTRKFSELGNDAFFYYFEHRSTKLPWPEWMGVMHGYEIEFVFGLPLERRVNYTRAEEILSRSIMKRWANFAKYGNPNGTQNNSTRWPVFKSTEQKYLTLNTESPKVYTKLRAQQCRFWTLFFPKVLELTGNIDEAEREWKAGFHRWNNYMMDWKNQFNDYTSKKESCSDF
Sequence of Acetylcholinesterase (O42275 whole entry): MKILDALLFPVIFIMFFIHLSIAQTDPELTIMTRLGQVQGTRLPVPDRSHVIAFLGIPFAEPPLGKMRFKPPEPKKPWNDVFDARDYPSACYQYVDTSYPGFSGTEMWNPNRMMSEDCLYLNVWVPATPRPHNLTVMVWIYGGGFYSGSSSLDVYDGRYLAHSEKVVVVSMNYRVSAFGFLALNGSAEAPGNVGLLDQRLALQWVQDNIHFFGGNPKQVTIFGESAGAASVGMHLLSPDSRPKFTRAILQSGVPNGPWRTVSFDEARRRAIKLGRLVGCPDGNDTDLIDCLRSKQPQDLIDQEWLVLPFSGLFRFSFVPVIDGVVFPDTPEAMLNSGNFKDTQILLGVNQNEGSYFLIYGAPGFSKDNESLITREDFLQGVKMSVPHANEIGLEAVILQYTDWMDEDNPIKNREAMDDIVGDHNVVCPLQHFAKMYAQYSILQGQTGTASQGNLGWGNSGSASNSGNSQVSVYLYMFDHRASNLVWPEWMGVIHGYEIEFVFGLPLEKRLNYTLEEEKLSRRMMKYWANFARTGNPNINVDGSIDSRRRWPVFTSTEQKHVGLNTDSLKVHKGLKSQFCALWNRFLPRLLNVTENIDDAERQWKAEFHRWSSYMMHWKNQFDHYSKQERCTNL

SMILES | IC50 [1] [µM] | IC50 [2] [µM] | Ratio IC50 [3] | pKa [4] | logP [5] | logD [6] | inhibition [7]
COc1ccc2c(c1OC)CO/C(=C\c1cc[n+](Cc3cccc([N+](=O)[O-])c3)cc1)C2=O | 29.2 | 0.456 | 64 | – | – | – | –
COc1ccc2c(c1OC)CO/C(=C\c1cc[n+](Cc3cccc(Cl)c3)cc1)C2=O | 9.92 | 0.0697 | 142 | – | – | – | –
COc1ccc2c(c1OC)CO/C(=C\c1cc[n+](Cc3ccccc3Cl)cc1)C2=O | 3.64 | 0.0159 | 229 | 8.62 | 3.2 | 1.96 | –
COc1ccccc1C[n+]1ccc(/C=C2\OCc3c(ccc(OC)c3OC)C2=O)cc1 | 8.79 | 0.64 | 13 | – | – | – | –
COc1ccc(C[n+]2ccc(/C=C3\OCc4c(ccc(OC)c4OC)C3=O)cc2)cc1 | 4.33 | 1.19 | 3.6 | – | – | – | –
COc1ccc2c(c1OC)CO/C(=C\c1cc[n+](Cc3ccccc3[N+](=O)[O-])cc1)C2=O | 20.9 | 0.503 | 41.6 | – | – | – | –
COc1cccc(C[n+]2ccc(/C=C3\OCc4c(ccc(OC)c4OC)C3=O)cc2)c1 | 3.06 | 0.441 | 7 | – | – | – | –
COc1ccc2c(c1OC)CO/C(=C\c1cc[n+](Cc3ccccc3F)cc1)C2=O | 4.41 | 0.0211 | 209 | – | – | – | –
COc1ccc2c(c1OC)CO/C(=C\c1cc[n+](Cc3ccc(F)cc3)cc1)C2=O | 2.07 | 0.00893 | 232 | 8.79 | 2.84 | 1.45 | Active
COc1ccc2c(c1OC)CO/C(=C\c1cc[n+](Cc3ccccc3)cc1)C2=O | 6.87 | 0.0448 | 153 | 8.68 | 2.53 | 1.28 | –
COc1ccc2c(c1OC)CO/C(=C\c1cc[n+](Cc3ccc([N+](=O)[O-])cc3)cc1)C2=O | > 100 | 3.55 | – | – | – | – | –
COc1ccc2c(c1OC)CO/C(=C\c1cc[n+](Cc3ccc(Cl)cc3)cc1)C2=O | 3.56 | 0.646 | 5.5 | – | – | – | –
COc1ccc2c(c1OC)CO/C(=C\c1cc[n+](Cc3cccc(F)c3)cc1)C2=O | 9.44 | 0.0263 | 359 | – | – | – | –
